Values quoted from earlier work in US11077045B2, “Blood microperfusion to skin by Shilajit” (Natreon, Inc., priority 2018, dated 2021).

What was measured:
[1] = low-dose administration, rats
[2] = transdermal preparation, subjects with diabetes

## N=C(N)NCCC[C@H](N)C(=O)O [L-arginine]
[1]
  microperfusion of rat skin: increase microperfusion
[2]
  blood flow in feet: improved
